Measured values from publication PMC7593677, “Discovery of N-(2-Amino-4-Fluorophenyl)-4-[bis-(2-Chloroethyl)-Amino]-Benzamide as a Potent HDAC3 Inhibitor” (Frontiers in Oncology, 2020).
Where two headings read alike, the source gives them in different places.

How the values were obtained:
HDAC1 = molecular target: T1, HDAC1 (Homo sapiens, UniProt Q13547); test: HDAC enzyme inhibition assay (fluorogenic substrate); assay type: biochemical; settings: recombinant enzyme, n ≥ 2, SD <10% of mean
T1 construct: purchased BPS Bioscience
Protocol: (§1) All of the HDAC enzymes tested were purchased from BPS Bioscience. First, 20 μL of each recombinant HDAC enzyme solution (HDAC1, 2, 3, 4, 6, 7, 8, and 9) was mixed with various concentrations of tested compound samples (20 μL) in a 96-well plate. The mixture was incubated at 30°C for 1 h for the dose-dependent assay. Additionally, mixtures were incubated for 15, 30, 60, and 90 min, for the time-dependent assay, and then 10 μL of fluorogenic substrate [3 mM Boc-Lys(acetyl)-AMC or Boc-Lys (trifluoroacetyl)-AMC for HDAC1/2/3/6 or HDAC4/7/8/9, respectively] was added. Then, the acetylation reaction was initiated by adding HDAC substrate working solution and incubating at 30°C for 2 h. After the desired time, 10 μL developer with trypsin and trichostatin A was added to stop the reaction, and then the mixture was incubated at 30°C for another 30 min.
(§2) A microplate reader was used to determine fluorescence intensity at excitation: 360 nm and emission: 460 nm. The inhibition ratios were calculated by comparing the fluorescence intensities from tested wells to those of controls. The IC50 curves and values were then obtained with GraphPad Prism 6.0 software.

HDAC6 = molecular target: T2, HDAC6 (Homo sapiens, UniProt Q9UBN7); test: as above; assay type: biochemical
T2 construct: purchased BPS Bioscience
Protocol: as §1, §2

HDAC7 = molecular target: T3, HDAC7 (Homo sapiens, UniProt Q8WUI4); test: as above; assay type: biochemical; settings: recombinant enzyme, n ≥ 2, SD <10% of mean
T3 construct: purchased BPS Bioscience
Protocol: as §1, §2

HDAC2 = molecular target: T4, HDAC2 (Homo sapiens, UniProt Q92769); test: biochemical; settings: recombinant enzyme, n ≥ 2, SD <10% of mean
T4 construct: purchased BPS Bioscience
Protocol: as §1, §2

HDAC4 = molecular target: T5, HDAC4 (Homo sapiens, UniProt P56524); test: biochemical
T5 construct: purchased BPS Bioscience
Protocol: as §1, §2

HDAC8 = molecular target: T6, HDAC8 (Homo sapiens, UniProt Q9BY41); test: biochemical
T6 construct: purchased BPS Bioscience
Protocol: as §1, §2

HDAC9 = molecular target: T7, HDAC9 (Homo sapiens, UniProt Q9UKV0); test: biochemical
T7 construct: purchased BPS Bioscience
Protocol: as §1, §2

HDAC3 = molecular target: T8, HDAC3 (Homo sapiens, UniProt O15379); test: biochemical; assay type: biochemical
T8 construct: purchased BPS Bioscience
Protocol: as §1, §2

HepG2 cells [1] = test: Antiproliferative MTT assay; assay type: cell-based, human
Protocol: (§3) The stock solutions of compounds to be tested were prepared in culture medium. […] To determine cell viability, 20 μL MTT working solution (5 mg/mL) was then added to each well and incubated for another 4 h. After this incubation, the medium was carefully aspirated, and 200 μL dimethyl sulfoxide (DMSO) was added to each well and vibrated for 10 min to make sure formed formazans were completely dissolved. The optical densities (ODs) at 490 and 630 nm were counted by Universal Microplate Spectrophotometer. […] Origin 7.5 software was used to calculate the IC50 values from at least three independent experiments.

A2780 cells = test: Antiproliferative MTT assay; assay type: cell-based; settings: Homo sapiens, A2780, 48 h, read-out: Antiproliferative IC50
Protocol: as §3

FTC-133 cells = test: Antiproliferative MTT assay; assay type: cell-based; settings: Homo sapiens, FTC-133, 48 h, read-out: Antiproliferative IC50
Protocol: as §3

H322 cells = test: Antiproliferative MTT assay; assay type: cell-based; settings: Homo sapiens, NCI-H322, 48 h, read-out: Antiproliferative IC50
Protocol: as §3

Hela cells = test: Antiproliferative MTT assay; assay type: cell-based; settings: Homo sapiens, 48 h, read-out: Antiproliferative IC50
Protocol: as §3

K562 cells = test: Antiproliferative MTT assay; assay type: cell-based; settings: Homo sapiens, K562, 48 h, read-out: Antiproliferative IC50
Protocol: as §3

MDA-MB-231 cells = test: Antiproliferative MTT assay; assay type: cell-based; settings: Homo sapiens, MDA-MB-231, 48 h, read-out: Antiproliferative IC50
Protocol: as §3

OS-RC-2 cells = test: Antiproliferative MTT assay; assay type: cell-based; settings: Homo sapiens, OS-RC-2, 48 h, read-out: Antiproliferative IC50
Protocol: as §3

SK-NEP-1 cells = test: Antiproliferative MTT assay; assay type: cell-based; settings: Homo sapiens, SK-NEP-1, 48 h, read-out: Antiproliferative IC50
Protocol: as §3

SW579 cells = test: Antiproliferative MTT assay; assay type: cell-based; settings: Homo sapiens, SW579, 48 h, read-out: Antiproliferative IC50
Protocol: as §3

U266 cells = test: Antiproliferative MTT assay; assay type: cell-based; settings: Homo sapiens, U-266, 48 h, read-out: Antiproliferative IC50
Protocol: as §3

U937 cells = test: Antiproliferative MTT assay; assay type: cell-based; settings: Homo sapiens, U-937, 48 h, read-out: Antiproliferative IC50
Protocol: as §3

A549 cells = test: Antiproliferative MTT assay; assay type: cell-based; settings: Homo sapiens, A549, 48 h, read-out: Antiproliferative IC50
Protocol: (§4) […]. The stock solutions of compounds to be tested were prepared in culture medium. Tumor cell lines were cultured in 96-well plates at a density of 5 × 10^3 cells per well and incubated until 90–95% confluence, and then each well received 100 μL medium containing desired concentrations of test compounds, and then incubated at 37°C and 5% CO2 for 48 h. To determine cell viability, 20 μL MTT working solution (5 mg/mL) was then added to each well and incubated for another 4 h. After this incubation, the medium was carefully aspirated, and 200 μL dimethyl sulfoxide (DMSO) was added to each well and vibrated for 10 min to make sure formed formazans were completely dissolved. The optical densities (ODs) at 490 and 630 nm were counted by Universal Microplate Spectrophotometer. […] Origin 7.5 software was used to calculate the IC50 values from at least three independent experiments.

H460 cells = test: Antiproliferative MTT assay; assay type: cell-based; settings: Homo sapiens, NCI-H460, 48 h, read-out: Antiproliferative IC50
Protocol: as §4

SW480 cells = test: Antiproliferative MTT assay; assay type: cell-based; settings: Homo sapiens, SW480, 48 h, read-out: Antiproliferative IC50
Protocol: as §4

HepG2 xenograft = test: In vivo antitumor activity, HepG2 xenograft nude mice model; settings: 100 mg/kg once a day for 15 days
Protocol: When the tumor is prominent, the BALB/c female mice were randomly assigned into control and treatment groups (six mice per group).
Injected mice were kept for 10 days; those with palpable tumors were then randomly assigned into treatment and control groups (six mice per group). The treatment groups were administrated with 100 mg/kg/d test compound intragastrically, whereas the control group was administered with an equal volume of phosphate-buffered saline (PBS) solution. The tumor size and body weight were assessed every day. After 15 days of treatment, the mice were euthanized, and tumor weights were acquired with an electronic balance.

HepG2 cells [2] = test: Cell apoptosis assay (annexin V-FITC/PI, flow cytometry); assay type: cell-based, human; settings: 24 h, normal group 5.83%
Protocol: Then cells were washed with PBS, collected, and resuspended with binding buffer from a commercially available annexin V–FITC kit (Thermo Fisher Co., USA) and mixed with 5 μL of annexin V–FITC gently. Following 10 min of incubation, 1 μL of propidium iodide was added to the samples and incubated for another 20 min while avoiding light. Flow cytometry was used to determine cell apoptosis status (CytoFLEX, Beckman Coulter).

HepG2 cells [3] = test: Cell cycle analysis (PI, flow cytometry); settings: 6 h; for Percentage of cells in G2/M phase (third peak): HepG2
Protocol: (§5) Following 6-h incubation, cells were washed twice with cold PBS and then fixed in 70% precooled ethanol at 4°C for 12 h. The fixed cells were washed again and then stained with PI/RNase A for 30 min at room temperature.

HepG2 cells xenograft = system: HepG2 cells xenograft; design: method as in PMID 31543818; settings: nude mice xenograft model; cited from earlier work
HepG2 cells [4] = settings: 6 h
Protocol: as §5

HepG2 cells [5] = test: Drug combination analysis (MTT assay); assay type: cell-based; settings: Homo sapiens, 48 h, read-out: Percentage inhibition rate (PIR)
Protocol: The efficacy of drug combination of FNA with taxol and camptothecin was evaluated via cell viability assay (MTT assay). The stock solutions of tested compounds were diluted to the desired concentrations with culture medium. The cells were cultured in 96-well plates at a density 5 × 10^3 cells per well and incubated until 90–95% confluence, and then 100 μL of medium containing desired concentrations of test compounds was added to the wells. Following 48-h incubation, 10 μL of MTT working solution was added to each well and incubated for another 4 h. After removal of the medium, 200 μL DMSO was added to each well to dissolve the formed formazan. The plates were vortexed for 10 min to ensure complete dissolution. Then the OD was acquired with a microplate reader at 490 and 630 nm.

T8 sequence (O15379 whole entry): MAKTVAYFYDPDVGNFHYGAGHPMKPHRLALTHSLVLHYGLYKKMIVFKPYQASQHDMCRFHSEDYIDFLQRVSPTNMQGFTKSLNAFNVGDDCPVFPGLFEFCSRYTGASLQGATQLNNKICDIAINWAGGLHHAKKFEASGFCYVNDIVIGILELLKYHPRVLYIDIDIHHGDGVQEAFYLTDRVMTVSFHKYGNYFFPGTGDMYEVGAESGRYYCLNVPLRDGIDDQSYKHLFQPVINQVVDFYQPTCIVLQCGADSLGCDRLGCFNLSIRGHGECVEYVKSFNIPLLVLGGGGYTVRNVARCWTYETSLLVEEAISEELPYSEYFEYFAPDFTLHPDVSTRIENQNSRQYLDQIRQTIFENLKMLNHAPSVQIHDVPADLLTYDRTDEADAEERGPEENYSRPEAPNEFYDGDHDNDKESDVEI
T8 sequence (Q9Y618 395-489 partner limits assumed): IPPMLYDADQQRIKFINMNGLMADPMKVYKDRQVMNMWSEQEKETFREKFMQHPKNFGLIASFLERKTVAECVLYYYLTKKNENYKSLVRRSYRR
T2 sequence (Q9UBN7 whole entry): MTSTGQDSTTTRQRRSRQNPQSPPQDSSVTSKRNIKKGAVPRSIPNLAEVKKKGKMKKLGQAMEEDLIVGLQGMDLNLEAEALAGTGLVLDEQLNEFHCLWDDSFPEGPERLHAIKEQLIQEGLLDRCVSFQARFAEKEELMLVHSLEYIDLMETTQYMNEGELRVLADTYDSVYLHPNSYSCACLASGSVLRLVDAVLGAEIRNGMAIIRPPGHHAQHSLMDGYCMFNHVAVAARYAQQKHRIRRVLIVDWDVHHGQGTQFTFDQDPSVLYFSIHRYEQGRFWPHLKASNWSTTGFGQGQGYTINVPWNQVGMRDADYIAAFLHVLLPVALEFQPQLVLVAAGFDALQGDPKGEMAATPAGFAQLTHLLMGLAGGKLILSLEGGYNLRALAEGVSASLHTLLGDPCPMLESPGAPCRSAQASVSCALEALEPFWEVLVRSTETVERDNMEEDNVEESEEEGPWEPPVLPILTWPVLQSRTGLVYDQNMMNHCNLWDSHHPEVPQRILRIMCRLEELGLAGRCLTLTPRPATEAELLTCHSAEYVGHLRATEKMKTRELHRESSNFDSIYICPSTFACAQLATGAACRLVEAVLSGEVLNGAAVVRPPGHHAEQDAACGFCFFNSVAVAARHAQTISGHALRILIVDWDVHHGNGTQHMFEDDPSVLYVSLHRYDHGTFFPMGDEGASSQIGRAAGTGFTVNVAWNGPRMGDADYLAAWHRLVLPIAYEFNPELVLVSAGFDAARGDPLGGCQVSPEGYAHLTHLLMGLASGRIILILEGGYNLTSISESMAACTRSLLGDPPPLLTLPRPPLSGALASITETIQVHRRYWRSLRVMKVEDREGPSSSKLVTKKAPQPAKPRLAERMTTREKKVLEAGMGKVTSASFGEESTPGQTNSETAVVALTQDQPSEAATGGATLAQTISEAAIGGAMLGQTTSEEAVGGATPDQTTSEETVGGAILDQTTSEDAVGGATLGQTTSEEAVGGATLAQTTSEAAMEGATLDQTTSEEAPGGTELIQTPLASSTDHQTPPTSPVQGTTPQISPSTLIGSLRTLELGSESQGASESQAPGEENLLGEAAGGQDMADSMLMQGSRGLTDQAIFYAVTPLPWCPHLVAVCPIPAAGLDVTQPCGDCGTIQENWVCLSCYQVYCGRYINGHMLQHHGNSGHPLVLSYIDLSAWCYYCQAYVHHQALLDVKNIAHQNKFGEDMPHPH
T4 sequence (Q92769 whole entry): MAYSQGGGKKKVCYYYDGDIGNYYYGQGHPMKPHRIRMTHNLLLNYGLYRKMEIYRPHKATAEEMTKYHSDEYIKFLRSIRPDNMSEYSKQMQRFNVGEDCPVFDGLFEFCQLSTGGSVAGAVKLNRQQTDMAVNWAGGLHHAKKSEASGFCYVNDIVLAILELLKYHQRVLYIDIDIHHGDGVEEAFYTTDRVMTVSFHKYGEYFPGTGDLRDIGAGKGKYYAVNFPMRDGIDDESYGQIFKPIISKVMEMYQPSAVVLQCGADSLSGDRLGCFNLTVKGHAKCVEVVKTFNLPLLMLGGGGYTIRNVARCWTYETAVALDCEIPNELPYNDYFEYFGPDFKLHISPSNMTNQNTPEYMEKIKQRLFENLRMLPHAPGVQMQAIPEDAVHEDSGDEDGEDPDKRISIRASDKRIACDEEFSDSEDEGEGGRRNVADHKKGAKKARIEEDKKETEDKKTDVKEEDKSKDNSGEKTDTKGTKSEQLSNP
T5 sequence (P56524 whole entry): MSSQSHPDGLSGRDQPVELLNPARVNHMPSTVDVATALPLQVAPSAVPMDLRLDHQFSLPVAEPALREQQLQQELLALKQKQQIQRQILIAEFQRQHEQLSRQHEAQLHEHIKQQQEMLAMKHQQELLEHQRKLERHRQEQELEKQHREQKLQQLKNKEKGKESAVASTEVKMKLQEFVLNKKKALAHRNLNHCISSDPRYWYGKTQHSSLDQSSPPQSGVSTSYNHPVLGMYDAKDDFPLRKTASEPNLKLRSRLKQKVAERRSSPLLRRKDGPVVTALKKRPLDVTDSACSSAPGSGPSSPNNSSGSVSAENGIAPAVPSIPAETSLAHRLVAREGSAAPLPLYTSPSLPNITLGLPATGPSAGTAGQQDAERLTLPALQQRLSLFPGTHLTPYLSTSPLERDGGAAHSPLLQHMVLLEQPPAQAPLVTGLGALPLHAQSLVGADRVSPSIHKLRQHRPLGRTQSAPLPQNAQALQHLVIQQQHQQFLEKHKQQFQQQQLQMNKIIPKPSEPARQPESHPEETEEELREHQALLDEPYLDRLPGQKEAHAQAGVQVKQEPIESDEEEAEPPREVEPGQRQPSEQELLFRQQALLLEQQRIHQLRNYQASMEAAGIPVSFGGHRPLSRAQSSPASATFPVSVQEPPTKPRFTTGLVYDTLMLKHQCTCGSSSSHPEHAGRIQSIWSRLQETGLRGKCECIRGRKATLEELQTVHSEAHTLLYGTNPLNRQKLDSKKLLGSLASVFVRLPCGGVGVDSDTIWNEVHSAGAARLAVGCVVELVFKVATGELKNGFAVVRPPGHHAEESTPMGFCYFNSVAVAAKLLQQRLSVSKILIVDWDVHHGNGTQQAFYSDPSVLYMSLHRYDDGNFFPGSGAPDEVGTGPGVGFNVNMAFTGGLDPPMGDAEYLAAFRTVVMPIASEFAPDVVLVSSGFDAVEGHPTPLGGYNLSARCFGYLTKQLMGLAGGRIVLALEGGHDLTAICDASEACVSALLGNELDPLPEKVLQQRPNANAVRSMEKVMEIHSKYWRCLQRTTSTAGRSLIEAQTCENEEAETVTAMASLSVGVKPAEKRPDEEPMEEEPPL
T6 sequence (Q9BY41 whole entry): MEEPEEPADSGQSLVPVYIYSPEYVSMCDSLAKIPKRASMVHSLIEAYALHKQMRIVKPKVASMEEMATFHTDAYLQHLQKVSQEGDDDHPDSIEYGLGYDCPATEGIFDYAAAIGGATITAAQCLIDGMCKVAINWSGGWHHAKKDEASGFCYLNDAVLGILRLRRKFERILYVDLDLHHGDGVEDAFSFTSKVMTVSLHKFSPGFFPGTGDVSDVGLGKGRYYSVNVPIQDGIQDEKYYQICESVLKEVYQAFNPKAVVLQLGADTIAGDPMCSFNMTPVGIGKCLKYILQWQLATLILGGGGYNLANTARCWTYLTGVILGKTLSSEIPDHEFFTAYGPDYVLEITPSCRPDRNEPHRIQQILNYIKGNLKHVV
T7 sequence (Q9UKV0 whole entry): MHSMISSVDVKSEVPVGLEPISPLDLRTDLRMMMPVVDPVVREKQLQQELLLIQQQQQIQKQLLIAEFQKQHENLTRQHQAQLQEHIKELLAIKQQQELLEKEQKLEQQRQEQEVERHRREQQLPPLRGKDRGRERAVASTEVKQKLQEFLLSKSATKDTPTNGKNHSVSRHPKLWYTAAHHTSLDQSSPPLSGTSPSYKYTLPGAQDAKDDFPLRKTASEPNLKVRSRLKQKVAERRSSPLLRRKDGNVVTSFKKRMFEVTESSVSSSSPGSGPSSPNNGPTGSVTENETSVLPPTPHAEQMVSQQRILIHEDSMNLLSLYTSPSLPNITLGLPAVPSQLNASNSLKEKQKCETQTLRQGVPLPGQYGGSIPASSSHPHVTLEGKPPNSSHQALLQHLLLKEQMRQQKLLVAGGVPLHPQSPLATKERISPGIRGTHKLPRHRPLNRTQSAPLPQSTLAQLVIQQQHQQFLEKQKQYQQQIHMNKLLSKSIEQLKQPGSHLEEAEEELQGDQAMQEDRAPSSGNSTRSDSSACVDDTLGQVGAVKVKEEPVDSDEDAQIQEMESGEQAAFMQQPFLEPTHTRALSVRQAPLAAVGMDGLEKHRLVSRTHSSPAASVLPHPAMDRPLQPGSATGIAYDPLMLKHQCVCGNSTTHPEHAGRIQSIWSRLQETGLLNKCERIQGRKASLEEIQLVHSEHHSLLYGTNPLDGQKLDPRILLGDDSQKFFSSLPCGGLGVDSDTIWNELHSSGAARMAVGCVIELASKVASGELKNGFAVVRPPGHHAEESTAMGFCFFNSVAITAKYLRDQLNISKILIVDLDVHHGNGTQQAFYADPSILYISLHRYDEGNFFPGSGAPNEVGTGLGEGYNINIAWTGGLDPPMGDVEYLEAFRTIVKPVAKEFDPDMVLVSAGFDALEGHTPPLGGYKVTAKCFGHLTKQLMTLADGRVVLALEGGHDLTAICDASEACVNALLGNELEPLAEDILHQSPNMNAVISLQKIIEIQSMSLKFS

Nc1cc(F)ccc1NC(=O)c1ccc(N(CCCl)CCCl)cc1 [FNA, N-(2-amino-4-fluorophenyl)-4-[bis-(2-chloroethyl)-amino]-benzamide]
IC50 (HDAC1): 0.843 µM
IC50 (HDAC6): > 5 µM
IC50 (HDAC7): > 5 µM
IC50 (HDAC2): 0.949 µM
IC50 (HDAC4): > 5 µM
IC50 (HDAC8): > 5 µM
IC50 (HDAC9): > 5 µM
HDAC3 selectivity vs. HDAC1 (HDAC3; ratio of IC50 values): 8.83 fold
HDAC3 selectivity vs. HDAC2 (HDAC3; ratio of IC50 values): 9.94 fold
IC50 (HDAC3; recombinant enzyme, n ≥ 2, SD <10% of mean): 0.0955 µM
Potency relative to SAHA in inhibition of the growth of HepG2 cells (HepG2 cells [1]; HepG2, ratio of IC50 values): 13.3 fold
IC50 (HepG2 cells [1]; Homo sapiens, HepG2, 48 h, read-out: Antiproliferative IC50): 1.3 ± 0.25 µM
IC50 (A2780 cells): 4.3 ± 0.12 µM
IC50 (FTC-133 cells): 9.09 ± 0.13 µM
IC50 (H322 cells): 6.36 ± 0.07 µM
IC50 (Hela cells): 1.41 ± 0.04 µM
IC50 (K562 cells): 1.31 ± 0.05 µM
IC50 (MDA-MB-231 cells): 35.29 ± 0.03 µM
IC50 (OS-RC-2 cells): > 100 µM
IC50 (SK-NEP-1 cells): 8.32 ± 0.18 µM
IC50 (SW579 cells): 52.4 ± 0.13 µM
IC50 (U266 cells): 0.63 ± 0.32 µM
IC50 (U937 cells): 0.55 ± 0.03 µM
IC50 (A549 cells): 33.74 ± 0.04 µM
IC50 (H460 cells): 4.73 ± 0.05 µM
IC50 (SW480 cells): > 100 µM
Tumor growth inhibition (TGI) rate (HepG2 xenograft): 48.89%
Apoptosis rate of HepG2 cells (HepG2 cells [2]; 1 μM): 14.08%
Apoptosis rate of HepG2 cells (HepG2 cells [2]; 3 μM): 19.11%
Apoptosis rate of HepG2 cells (HepG2 cells [2]; 9 μM): 28.83%
Percentage of cells in G2/M phase (third peak) (HepG2 cells [3]; 0.125 μM): 18.84%
Percentage of cells in G2/M phase (third peak) (HepG2 cells [3]; 0.5 μM): 59.36%

Nc1ccccc1NC(=O)c1ccc(N(CCCl)CCCl)cc1 [NA, N-(2-aminophenyl)-4-(bis(2-chloroethyl)amino)benzamide]
In vivo potency compared with SAHA (HepG2 cells xenograft): lower potency than SAHA

O=C(CCCCCCC(=O)Nc1ccccc1)NO [SAHA, Vorinostat]
IC50 (H460 cells): 7.63 ± 0.03 µM
IC50 (SW480 cells): 2.91 ± 0.04 µM
Apoptosis rate of HepG2 cells (HepG2 cells [2]; 1 μM): 10.03%
Apoptosis rate of HepG2 cells (HepG2 cells [2]; 9 μM): 12.43%
Percentage of cells, first peak of cell cycle histogram (phase not given) (HepG2 cells [4]; 0.125 μM): 57.65%
Percentage of cells, second peak of cell cycle histogram (phase not given) (HepG2 cells [4]; 0.125 μM): 25.02%
Percentage of cells, first peak of cell cycle histogram (phase not given) (HepG2 cells [4]; 0.25 μM): 56.26%
Percentage of cells, second peak of cell cycle histogram (phase not given) (HepG2 cells [4]; 0.25 μM): 26.33%
Percentage of cells, first peak of cell cycle histogram (phase not given) (HepG2 cells [4]; 0.5 μM): 64.73%
Percentage of cells, second peak of cell cycle histogram (phase not given) (HepG2 cells [4]; 0.5 μM): 23.27%
Effect in the regulation of HepG2 cell cycle (HepG2 cells [3]; 0.125, 0.25 and 0.5 μM): did not exhibit any effects

CC[C@@]1(O)C(=O)OCc2c1cc1n(c2=O)Cc2cc3ccccc3nc2-1 [camptothecin]
inhibition at 0.25 µM (HepG2 cells [5]; HepG2, camptothecin 0.25 μM alone): 61.7%
inhibition at 0.5 µM (HepG2 cells [5]; HepG2, camptothecin 0.5 μM alone): 60.9%

CC(=O)O[C@H]1C(=O)[C@@]2(C)[C@H]([C@H](OC(=O)c3ccccc3)[C@]3(O)C[C@H](OC(=O)[C@H](O)[C@@H](NC(=O)c4ccccc4)c4ccccc4)C(C)=C1C3(C)C)[C@]1(OC(C)=O)CO[C@@H]1C[C@@H]2O [taxol]
inhibition at 0.1 µM (HepG2 cells [5]; HepG2, taxol 0.1 μM alone): 57.1%
inhibition at 0.2 µM (HepG2 cells [5]; HepG2, taxol 0.2 μM alone): 62.4%
